From patent US20040023994A1 (priority 2002, published 2004)
Where two headings read alike, the source gives them in different places. Marks after values point to notes of the source that are not given here.

How the values were obtained:
[1] = test system: A-498 cells; experiment: MTT cytotoxicity assay; type: cell-based, human
Procedure: (§1) Preliminary studies examining the in vitro cytotoxicity of cis-AVTP and trans-AVTG as compared to the parent drugs, were carried out using the 3-[4,5-dimethylthiazol-2-yl]-2,5-diphenyl tetrazolium bromide (MTT) cytotoxicity assay.

[2] = test system: ACHN cells; experiment: MTT cytotoxicity assay; type: cell-based, human
Procedure: as §1

[3] = test system: all the cell lines included in the screen; experiment: cells
Procedure: cis-AVTP and trans-AVTG were tested in National Cancer Institute's (NCI) 60 cell lines derived from leukemia, melanoma, lung, kidney cancers. Most chemotherapeutic agents currently nd 6-TG, have been tested in this screen and a database he National Institutes of Health. The NCI assigned s-AVTP, and number NSC-722289 to trans-AVTG. tocol used for the cytotoxicity assessment in the NCI e from the National Institutes of Health. Briefly, tumor ma, lung, colon, brain, ovary, breast, prostate, and um containing 5% fetal bovine serum and 2 mM L-glutamine re plated in a 100 μL volume into 96 well microtiter 37° C. in humidified atmosphere supplemented with 5% ach cell line were fixed with trichloroacetic acid for f drug addition (Tz). The drugs, as 400-fold concentrated uted to twice the final maximum test concentration with entamicin. Additional four 10-fold dilutions were made us control. Aliquots (100 μl) of the drug solutions were 100 μl of medium, resulting in the required final drug the plates were incubated at 37° C. in humidified for additional 48 h. The assay was terminated by the w/v) trichloroacetic acid for adherent and suspension minutes at 4° C. The supernatant was discarded, the and air dried. A 100 μl aliquot of 0.4% (w/v) sulforhodamine B (SRB) solution in 1% acetic acid was added to each well, and the plates incubated for 10 minutes at room temperature. After staining, unbound dye was removed by washing five times with 1% acetic acid and the plates air dried. Bound stain was solubilized with 10 mM trizma base, and the absorbance read on a plate reader at a wavelength of 515 nm.
By using time zero (Tz), control growth (C), and test growth in the presence of drug at the five concentration levels (Ti), the percentage growth was calculated at each of the drug concentration levels. Percentage growth inhibition was calculated as:
[(Ti−Tz)/(C−Tz)]×100 for concentrations for which Ti>/=Tz
[(Ti−Tz)/Tz]×100 for concentrations for which Ti<Tz.
Three dose response parameters were calculated for each experimental agent. […] The TGI, the drug concentration resulting in total growth inhibition was calculated from Ti=Tz. The LC50 (the concentration of drug resulting in a 50% reduction in the measured protein at the end of the drug treatment as compared to that at the beginning) indicating a net loss of cells following treatment was calculated from [(Ti−Tz)/Tz]×100=−50. Values were calculated for each of these three parameters if the level of activity is reached; however, if the effect was not reached or was exceeded, the value for that parameter is expressed as greater or less than the maximum or minimum concentration tested.

[4] = test system: Breast cell lines
[5] = test system: Prostate cell lines
[6] = test system: Colon cell lines
[7] = test system: Renal cell lines
[8] = test system: Melanoma cell lines
[9] = test system: NSCL cell lines
[10] = test system: CNS cell lines
[11] = test system: Leukemia cell lines
[12] = test system: ACHN
[13] = test system: Ovarian cell lines; experiment: NCI anticancer screen, by tissue type; settings: for GI50: read-out: median GI50; for CC50: read-out: median LC50
[14] = test system: Breast cell lines; experiment: cells
[15] = test system: Prostate cell lines; experiment: cells
[16] = test system: Colon cell lines; experiment: cells
[17] = test system: Renal cell lines; experiment: cells
[18] = test system: Melanoma cell lines; experiment: cells
[19] = test system: NSCL cell lines; experiment: cells
[20] = test system: CNS cell lines; experiment: cells; settings: Homo sapiens
[21] = test system: Leukemia cell lines; experiment: cells
[22] = all cell lines of the NCI screen

`CC(=O)C=CSc1nc(N)nc2nc[nH]c12` [trans-AVTG, 6-(2-acetylvinylthio) guanine] was tested, and the IC50 ([1]; A-498, 72 h incubation, MTT) was 9.7 ± 2 µM, the IC50 ([2]; 72 h incubation, MTT) was 4.1 ± 0.4 µM and the “median TGI” value [3, 22] was 12.9 µM. The GI50 ([3]; read-out: median GI50, all cell lines of the NCI screen) was 0.98 µM, the CC50 ([3]; read-out: median LC50, all cell lines of the NCI screen) was 76.2 µM and the “median TGI” value [4] was 11.6 µM. The GI50 ([4]; read-out: median GI50) was 0.97 µM, the CC50 ([4]; read-out: median LC50) was 88.1 µM and the “median TGI” value [5] was 19.7 µM. For the same compound, the GI50 ([5]; read-out: median GI50) was 3.96 µM, the CC50 ([5]; read-out: median LC50) was 62.5 µM and the “median TGI” value [6] was 9.50 µM. For the same compound, the GI50 ([6]; read-out: median GI50) was 1.43 µM, the CC50 ([6]; read-out: median LC50) was 62.6 µM and the “median TGI” value [7] was 14.3 µM. The GI50 ([7]; read-out: median GI50) was 0.98 µM, the CC50 ([7]; read-out: median LC50) was 52.8 µM and the “median TGI” value [8] was 10.1 µM. The GI50 ([8]; read-out: median GI50) was 0.73 µM, the CC50 ([8]; read-out: median LC50) was 53.1 µM and the “median TGI” value [9] was 19.4 µM. The GI50 ([9]; read-out: median GI50) was 2.52 µM, the CC50 ([9]; read-out: median LC50) was 61.5 µM and the “median TGI” value [10] was 32.4 µM. For the same compound, the GI50 ([10]; read-out: median GI50) was 3.68 µM, the CC50 ([10]; read-out: median LC50) was > 100 µM and the “median TGI” value ([11]; Leukemia) was 13.4 µM. The GI50 ([11]; read-out: median GI50, Leukemia) was 0.37 µM, the CC50 ([11]; read-out: median LC50, Leukemia) was > 100 µM and the GI50 ([12]; Renal, 48 h) was 3.63 µM. The TGI ([12]; Renal, 48 h) was 51.4 µM, the CC50 ([12]; read-out: LC50, Renal, 48 h) was > 100 µM and the “median TGI” value ([13]; Ovarian) was 3.41 µM. The GI50 ([13]; Ovarian) was 0.39 µM and the CC50 ([13]; Ovarian) was 51.4 µM.

`CC(=O)C=CSc1ncnc2nc[nH]c12` [cis-AVTP, 6-(2-acetylvinylthio) purine] gave an IC50 ([1]; Homo sapiens, A498, A-498, 24 h drug incubation) of 107 ± 14.7 µM, an IC50 ([1]; Homo sapiens, A498, A-498, 48 h drug incubation) of 24.6 ± 4 µM and an IC50 ([1]; Homo sapiens, A498, A-498, 72 h incubation, MTT) of 8 ± 1.2 µM. The IC50 ([1]; Homo sapiens, A498, A-498, 96 h drug incubation) was 5.5 ± 0.9 µM, the IC50 ([2]; Homo sapiens, 24 h drug incubation) was 58.2 ± 1.7 µM and the IC50 ([2]; Homo sapiens, 48 h drug incubation) was 8.7 ± 0.9 µM. For the same compound, the IC50 ([2]; Homo sapiens, 72 h incubation, MTT) was 3.7 ± 0.7 µM, the IC50 ([2]; Homo sapiens, 96 h drug incubation) was 3.5 ± 0.4 µM and the GI50 [3] was < 2 µM. For the same compound, the “median TGI” value [3, 22] was 4.56 µM, the CC50 ([3]; read-out: LC50) was < 15 µM and the GI50 ([3]; read-out: median GI50) was 0.6 µM. For the same compound, the CC50 ([3]; read-out: median LC50) was 38.6 µM, the “median TGI” value [4] was 3.98 µM and the “median TGI” value [5] was 7.09 µM. For the same compound, the “median TGI” value [6] was 4.42 µM, the “median TGI” value [7] was 2.67 µM and the “median TGI” value [8] was 3.24 µM. The “median TGI” value [9] was 12.2 µM, the “median TGI” value [10] was 10.7 µM and the “median TGI” value ([11]; Leukemia) was 52.5^# μM. The TGI ([11]; leukemia cell lines CCRF-CEM, HL-60(TB), and RPMI-8226) was < 5 µM, the GI50 ([14]; read-out: median GI50) was 0.55 µM and the CC50 ([14]; read-out: median LC50) was > 100 µM. The GI50 ([15]; read-out: median GI50) was 1.69 µM, the CC50 ([15]; read-out: median LC50) was 54.8 µM and the GI50 ([16]; read-out: median GI50) was 1.13 µM. It also gave a CC50 ([16]; read-out: median LC50) of 25.3 µM, a GI50 ([17]; read-out: median GI50) of 0.49 µM and a CC50 ([17]; read-out: median LC50) of 10.7 µM. For the same compound, the GI50 ([18]; read-out: median GI50) was 0.48 µM, the CC50 ([18]; read-out: median LC50) was 9.58 µM and the GI50 ([19]; read-out: median GI50) was 1.59 µM. For the same compound, the CC50 ([19]; read-out: median LC50) was 53.7 µM, the GI50 ([20]; read-out: median GI50) was 1.69 µM and the CC50 ([20]; read-out: median LC50) was 52.7 µM. The GI50 [21] was < 0.5 µM, the GI50 ([21]; read-out: median GI50) was 0.19 µM and the CC50 ([21]; read-out: median LC50) was > 100 µM. It also gave a GI50 ([12]; Homo sapiens, 48 h) of 1.99 µM, a CC50 ([12]; Homo sapiens, 48 h, read-out: LC50) of 7.59 µM and a TGI ([12]; Renal, 48 h) of 3.89 µM. For the same compound, the “median TGI” value ([13]; Ovarian) was 4.55 µM, the GI50 [13] was 0.91 µM and the CC50 [13] was 27.7 µM.
